Data taken from US20090028925A1, “Novel Phosphinic Acid-Containing Thyromimetics” (priority 2005, published 2009).

Key:
[1] = molecular target: T1, human thyroid hormone receptors TRα1 (Homo sapiens, UniProt P10827); assay: Receptor binding to TRα1 (gel filtration and scintillation proximity assay, labeled T3); conditions: SPA data; read-out: Ki TRα
T1 construct: made in house; host or cells: Sf9 insect cells (baculovirus)
T1 sequence (P10827 1-410 isoform P10827-2): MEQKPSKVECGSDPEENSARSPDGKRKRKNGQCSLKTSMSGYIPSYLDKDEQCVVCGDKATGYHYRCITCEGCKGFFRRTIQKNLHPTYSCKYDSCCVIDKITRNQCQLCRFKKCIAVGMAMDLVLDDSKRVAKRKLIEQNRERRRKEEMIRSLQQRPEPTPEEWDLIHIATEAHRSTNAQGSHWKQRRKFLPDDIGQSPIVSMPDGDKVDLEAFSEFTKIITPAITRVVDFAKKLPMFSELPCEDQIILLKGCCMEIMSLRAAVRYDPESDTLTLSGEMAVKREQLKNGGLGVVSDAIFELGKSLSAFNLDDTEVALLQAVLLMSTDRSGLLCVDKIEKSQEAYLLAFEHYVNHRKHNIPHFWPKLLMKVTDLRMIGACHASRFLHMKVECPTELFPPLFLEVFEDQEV
T1 sequence (P19793 1-462 partner): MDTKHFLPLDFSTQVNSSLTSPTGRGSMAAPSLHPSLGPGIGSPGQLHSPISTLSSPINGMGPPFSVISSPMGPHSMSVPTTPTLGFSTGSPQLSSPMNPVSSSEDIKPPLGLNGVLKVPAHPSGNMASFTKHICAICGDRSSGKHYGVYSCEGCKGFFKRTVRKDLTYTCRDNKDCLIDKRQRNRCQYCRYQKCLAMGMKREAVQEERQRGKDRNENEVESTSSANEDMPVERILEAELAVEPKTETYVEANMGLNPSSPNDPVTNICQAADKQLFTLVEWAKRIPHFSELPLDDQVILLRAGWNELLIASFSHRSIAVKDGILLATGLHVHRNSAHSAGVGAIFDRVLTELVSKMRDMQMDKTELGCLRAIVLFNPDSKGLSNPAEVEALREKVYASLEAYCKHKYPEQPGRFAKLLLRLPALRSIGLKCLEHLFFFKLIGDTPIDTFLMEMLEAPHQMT

[2] = molecular target: T2, human thyroid hormone receptors TRβ1 (Homo sapiens, UniProt P10828); assay: Receptor binding to TRβ1 (gel filtration and scintillation proximity assay, labeled T3); conditions: SPA data; read-out: Ki TRβ
T2 construct: made in house; host or cells: Sf9 insect cells (baculovirus)
T2 sequence (P10828 1-461): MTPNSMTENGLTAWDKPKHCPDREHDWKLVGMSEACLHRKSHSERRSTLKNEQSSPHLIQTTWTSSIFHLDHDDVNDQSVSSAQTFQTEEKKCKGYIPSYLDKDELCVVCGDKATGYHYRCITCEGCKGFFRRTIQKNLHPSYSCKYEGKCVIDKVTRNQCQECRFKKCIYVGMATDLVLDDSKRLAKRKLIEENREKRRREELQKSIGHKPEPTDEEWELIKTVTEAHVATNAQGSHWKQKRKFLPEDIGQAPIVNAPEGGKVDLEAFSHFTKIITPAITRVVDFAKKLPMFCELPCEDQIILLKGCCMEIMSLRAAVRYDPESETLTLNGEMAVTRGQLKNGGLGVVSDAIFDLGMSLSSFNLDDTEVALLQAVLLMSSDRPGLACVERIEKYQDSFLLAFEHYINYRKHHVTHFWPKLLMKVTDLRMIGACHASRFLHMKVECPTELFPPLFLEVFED
T2 sequence (P19793 1-462 partner): T1 sequence (P19793 1-462 partner)

[3] = Prodrug activation in rat liver microsomes; format: in vitro ADME; conditions: for Vmax: dexamethasone treated rat microsomes, formation of Compound 7; for microsomal CLint: rat, liver microsomes from dexamethasone-treated rats, intrinsic clearance calculated from the kinetic parameters
Excerpt: (§1) The purpose of these studies was to determine the kinetics of activation of prodrugs of thyromimetics in microsomal preparations. Microsomes contain the P450 enzyme that is required for the activation of many of the prodrugs prepared. The Km, Vmax, and intrinsic clearance values determined are measures of prodrug affinity for the microsomal enzymes, the rate at which the prodrug is activated, and the catalytic efficiency with which the prodrug is activated, respectively.
(§2) Methods: Activation of prodrugs by dexamethasone treated rat hepatocyte microsomes. Microsomes were isolated by standard differential centrifugation methods from dexamethasone-treated rats. The treatment is to increase cytochrome P450-3A (CYP3A4) activity. Induction of CYP3A4 was confirmed by an increase in testosterone hydroxylation.
(§3) Various concentrations of HepDirect™ Compound 7 were incubated with rat hepatocytes microsomes. Compound 7 formation was analyzed by HPLC using UV-Vis detection. Kinetic parameters (Vmax and Km) were calculated from the transformed data and the intrinsic clearance calculated from the kinetic parameters.

[4] = system: CYP3A (cytochrome P450-3A (CYP3A4)); assay: Prodrug activation in rat liver microsomes; format: in vitro ADME; conditions: liver microsomes from dexamethasone-treated rats; dexamethasone treated rat microsomes, formation of Compound 7
Excerpt: as §1, §2, §3

[5] = effects on cholesterol and TSH at the same or not pharmacologically different doses; cited from earlier work
[6] = design: species or system rats; conditions: in vivo, po
Protocol: The oral bioavailability (OBAV) of Compound 12-1, a bis POM prodrug of Compound 7, was estimated by comparison of the dose-normalized area under the curve (AUC) of the plasma concentration-time profile of Compound 7 following IV and PO administration of Compound 7 and Compound 12-1, respectively, to normal rats.
Method: Groups of non-fasted male SD rats were administered either 5 mg/kg of Compound 7 by IV bolus or 20 mg/kg of Compound 12-1 by oral gavage. Prior to drug administration, the rats were catheterized at the tail artery to facilitate blood collection. Plasma samples were obtained at pre-specified time points following dosing, extracted with 1.5 volumes of methanol, and then assayed by an LC-UV method using a C18 column eluted with a gradient of 20% to 45% v/v acetonitrile in a potassium phosphate buffer pH 6.2 over 15 min with UV absorbance monitoring at 280 nm. The AUC values were determined noncompartmentally from the plasma concentration-time plots by trapezoidal summation to the last measurable time point.
Plasma levels of compound were analyzed by HPLC and the AUCs for the i.v. dose of 5 mg/kg and the p.o. dose of 20 mg/kg were compared. The maximum OBAV for Compound 19-2 was 0.003%. Typically, compounds that are taken forward as an oral drug candidate have OBAV values of at least 15-20%, when tested in an animal model. This minimal requirement for OBAV in a genetically homogenous model system insures that exposure can be accurately monitored when humans are treated with the compound. Furthermore, in a genetically variable background such as humans, the variability for a compound with low OBAV in genetically homogenous model systems, can be widely variable, leading some subjects to have much higher than anticipated exposure, while other subjects have no exposure.

SMILES | Ki [1] [nM] | Ki [2] [nM] | Vmax [3] [pmol/min/mg] | microsomal CLint [3] [µL/min/mg] | Km [4] [µM] | TSH levels [5] | cholesterol levels [5] | absorption in the rat [6]
Cc1cc(OC[P@@]2(=O)OCC[C@@H](c3ccncc3)O2)cc(C)c1Cc1ccc(O)c(C(C)C)c1 [Compound 13-5-cis, 2-[(3,5-dimethyl-4-(4′-hydroxy-3′-iso-propylbenzyl)phenoxy)methyl]-4-(pyrid-4-yl)-2-oxo-2λ^5-[1,3,2]-dioxaphosphonane] | 4430 | 1010 | 3266 | 29 | 113 | – | – | –
Cc1cc(OC[P@]2(=O)OCC[C@H](c3ccc(Cl)cc3)O2)cc(C)c1Cc1ccc(O)c(C(C)C)c1 [Compound 13-6-cis, 2-[(3,5-dimethyl-4-(4′-hydroxy-3′-iso-propylbenzyl)phenoxy)methyl]-4-(4-chlorophenyl)-2-oxo-2λ^5-[1,3,2]-dioxaphosphonane] | 4710 | 3590 | 598 | 62 | 10 | – | – | –
Cc1cc(OCC(=O)O)cc(C)c1Cc1ccc(O)c(C(C)C)c1 [GC-1, [4-[[4-hydroxy-3-(1-methylethyl)phenyl]methyl]-3,5-dimethylphenoxy]acetic acid] | – | – | – | – | – | dose-dependently lower | dose-dependently lower | –
Cc1cc(OC[P@@]2(=O)OCC[C@@H](c3cccc(F)c3)O2)cc(C)c1Cc1ccc(O)c(C(C)C)c1 [Compound 13-3-cis] | 2840 | 3430 | 2118 | 46 | 46 | – | – | –
Cc1cc(OCP(=O)(OCOC(=O)C(C)(C)C)OCOC(=O)C(C)(C)C)cc(C)c1Cc1ccc(O)c(C(C)C)c1 [Compound 12-1, di(pivaloyloxymethyl) [3,5-Dimethyl-4-(4′-hydroxy-3′-iso-propylbenzyl)phenoxy]methylphosphonate] | 1670 | 662 | – | – | – | – | – | adequately absorbed
Cc1cc(OC[P@@]2(=O)OCC[C@@H](c3cccc(Br)c3)O2)cc(C)c1Cc1ccc(O)c(C(C)C)c1 [Compound 13-2-cis, 2-[(3,5-dimethyl-4-(4′-hydroxy-3′-iso-propylbenzyl)phenoxy)methyl]-4-(3-bromophenyl)-2-oxo-2λ^5-[1,3,2]-diox aphosphonane] | 488 | 419 | 694 | 86 | 8 | – | – | –
Cc1cc(OCP(=O)(OCOC(=O)OC(C)C)OCOC(=O)OC(C)C)cc(C)c1Cc1ccc(O)c(C(C)C)c1 [Compound 12-3, di(isopropoxycarbonyloxymethyl)[3,5-dimethyl-4-(4′-hydroxy-3′-iso-propylbenzyl)phenoxy]methylphosphonate] | 738 | 156 | 775 | 54 | 14 | – | – | –
Cc1cc(OC[P@@]2(=O)OCC[C@@H](c3cccnc3)O2)cc(C)c1Cc1ccc(O)c(C(C)C)c1 [Compound 13-4-cis, 2-[(3,5-dimethyl-4-(4′-hydroxy-3′-iso-propylbenzyl)phenoxy)methyl]-4-(pyrid-3-yl)-2-oxo-2λ^5-[1,3,2]-dioxaphosphonane] | 5530 | 1520 | 2983 | 30 | 100 | – | – | –
CC(C)c1cc(Oc2c(Br)cc(CP(=O)(O)O)cc2Br)ccc1O [Compound 19-2, [3,5-dibromo-4-(4′-hydroxy-3′-iso-propylphenoxy)]benzylphosphonic Acid] | 343 | 20 | – | – | – | – | – | not adequately absorbed
